{"source": "patent US6242482A", "about": "“Prostaglandin compounds and derivatives thereof, compositions containing the same and method of using the same for the treatment of congestive heart failure” (priority 2000, dated 2001)", "key": {"[1]": {"test_system": "Human Platelet Aggregation (collagen-induced)", "assay": "Anti-aggregatory response after incubation with aqueous vehicle (acetate buffer) (Example 4)", "format": "cell-based", "description": "(§1) Blood from healthy human volunteers who had not taken any medicine for at least 14 days was collected by venopuncture into 3.15% (w/v) tri-sodium citrate (9:1 v/v). The blood was centrifuged at 800 g for 15 minutes to produce PRP. The PRP was further centrifuged at 12,000 g for 1 minute to produce PPP.\n(§2) Platelet aggregation was measured using a dual channel Payton aggregometer calibrated with PRP (0%) and PPP (100%) with respect to the degree of light transmission. Aliquots of PRP (500 μl) were added to siliconized cuvettes, stirred (1000 revs/min) and warmed to 37° C. The platelets were incubated for 1 minute to establish a stable baseline prior to testing. A submaximal concentration of the aggregating agent collagen (1 μg/ml) was added to the PRP and the platelet aggregation was monitored as the increase in light transmission observed over a 4 minute period.\n(§3) After the incubation period, a 50 μl aliquot of the aqueous vehicle with the corresponding sample compound was added to fresh PRP (450 μl) for determination of anti-aggregatory activity following challenge with collagen. This experiment was repeated using PPP from at least three human volunteers. […] The data in both Tables 2 and 3 are shown as the mean and the standard error of n number of donors."}, "[2]": {"test_system": "U44069-induced pulmonary hypertension", "assay": "Effects on pulmonary vascular hypertension in sheep in vivo (Example 16)", "settings": "FIG. 5", "source_text": "Each sheep was monitored for measurement of pulmonary arterial pressure (PPA), left atrial pressure (PLA), systemic arterial pressure (PSA), cardiac output (CO), and heart rate (HR). Plasma samples were taken from the sheep subjects to measure drug levels within the blood throughout the experiment. The experiment began upon intravenously infusing a known pulmonary arterial hypertension inducer in a customary manner. The rate of inducement was adjusted to cause the pulmonary vascular resistance (PVR) to increase 3 to 4 times that of the initial baseline PVR. PVR is calculated as the difference between PPA and PLA, divided by the CO. After a stabilization period, a sample of a present prostaglandin compound was administered via a surgically prepared tracheotomy using a MEDICATOR® aerosol drug delivery system (Healthline Medical Inc., Baldwin Park, Calif.), or via intravenous infusion."}, "[3]": {"test_system": "Human Platelet Aggregation (collagen-induced)", "assay": "Anti-aggregatory activity, 1 min incubation with PRP, collagen-induced (Example 8)", "format": "cell-based", "settings": "1 minute with PRP", "description": "as §1, with “PPP. A total of 12 volunteers donated blood for the study.” for “PPP.”\nas §2, with “studied” for “measured”, “investigation.” for “testing.”\nThe percentage inhibition of the platelet aggregation was calculated using the peak increase in light transmission observed over the 4 minute period following addition of collagen, as compared to that of control. This experiment was repeated using PRP from at least three human volunteers for each compound under study."}, "[4]": {"test_system": "mean arterial pressure and heart rate of anesthetized rats", "assay": "Systemic hemodynamic effects, intravenous, anesthetized rats (Example 5)", "format": "in vivo, rat (male Wistar)", "description": "The time for onset and maximal response were evaluated, as well as the time taken for the response to return to 50% of the baseline value for comparing effective lives. Among other effects, lowering of the blood pressure inside the blood vessels is beneficial for the treatment of congestive heart failure by reducing the vascular resistance blood flow, and thus the work load imposed on the heart.\nMale Wistar rats were anesthetized with thiopentone sodium (INTRAVAL®, 120 mg kg^-1 i.p.). The trachea was cannulated to facilitate breathing. The right carotid artery was cannulated and connected to a pressure transducer (Spectramed P23XL), for the measurement of mean arterial pressure (MAP) and heart rate (HR) which were continuously recorded on a 4-channel Grass 7D polygraph recorder (Grass, Mass., USA). The left femoral vein or the right jugular vein was cannulated for the administration of drugs. The body temperature of the test animal was maintained at 37±1° C. by means of a rectal probe thermometer attached to a homeothermic blanket control unit (Harvard Apparatus Ltd).\nAfter a 15 minute stabilization period, the animals were injected once intravenously with selected doses of each compound, and hemodynamic parameters were continuously monitored for three hours in order to ascertain the duration of action of the compounds under study."}, "[5]": {"test_system": "Human Platelet Aggregation (collagen-induced)", "assay": "Anti-aggregatory response after incubation with aqueous vehicle (Example 8)", "format": "cell-based", "settings": "up to 4 hours at 37° C", "description": "as §1, with “PPP. A total of 12 volunteers donated blood for the study.” for “PPP.”\nas §2, with “studied” for “measured”, “investigation.” for “testing.”\nAfter the incubation period, an aliquot of the PPP or aqueous vehicle (50 μl) was added to fresh PRP (450 μl) for determination of anti-platelet activity. This experiment was repeated using PPP from at least three human volunteers for each compound."}, "[6]": {"test_system": "Human Platelet Aggregation (collagen-induced)", "assay": "Anti-aggregatory response after incubation with human PPP (Example 4)", "format": "cell-based", "description": "as §1, §2, §3"}, "[7]": {"test_system": "mean arterial pressure and heart rate of anesthetized rats", "assay": "Systemic hemodynamic effects, intravenous, anesthetized rats (Example 9)", "format": "in vivo, rat (male Wistar)", "description": "Among other effects, lowering of the blood pressure inside the blood vessels is beneficial for the treatment of congestive heart failure by reducing the vascular resistance of the blood flow which substantially reduces the work load imposed on the heart. […] This study involved the use of male Wistar rats anaesthetized with thiopentone sodium ([…]®, 120 mg kg^-1 i.p.). The trachea was cannulated to facilitate breathing."}, "[8]": {"settings": "i.v., Compound X 0.1 and 1 mg/kg, Compound 1 doses of b230"}}, "note": "Entries after “also recorded” stand apart in the source; their conditions may differ."}
{"smiles": "CCCCC[C@H](O)CC[C@@H]1[C@H]2Cc3cccc(OCC(=O)O)c3C[C@H]2C[C@H]1O", "note": "[Compound X]", "values": [{"measurement": "Platelet Aggregation (mean)", "setting": "[1]; 3 ng/ml final, 1 Hour in acetate buffer", "value": "107 % of Control"}, {"measurement": "Platelet Aggregation (mean)", "setting": "[1]; 3 ng/ml final, 4 Hours in acetate buffer", "value": "94 % of Control"}, {"measurement": "Platelet Aggregation (mean)", "setting": "[1]; 3 ng/ml final, 15 Minutes in acetate buffer", "value": "98 % of Control"}, {"measurement": "Platelet Aggregation (mean)", "setting": "[1]; 30 ng/ml final, 1 Hour in acetate buffer", "value": "8 % of Control"}, {"measurement": "Platelet Aggregation (mean)", "setting": "[1]; 30 ng/ml final, 4 Hours in acetate buffer", "value": "8 % of Control"}, {"measurement": "Platelet Aggregation (mean)", "setting": "[1]; 30 ng/ml final, 15 Minutes in acetate buffer", "value": "3 % of Control"}, {"measurement": "effect of incubation with aqueous vehicle on anti-platelet activity", "setting": "[1]; 15 minutes, 1 hour and 4 hours", "value": "no significant effect on the degree of anti-platelet activity"}, {"measurement": "PPA-PLA before administration (normalized)", "setting": "[2]; 1 μg/kg aerosol over 15 minutes", "value": "about 11.25 cmH2 O"}, {"measurement": "PPA-PLA after administration (normalized)", "setting": "[2]; 1 μg/kg aerosol, 10 minutes after termination", "value": "about 5 cmH2 O"}, {"measurement": "concentration inhibiting aggregation by 50% (IC50)", "setting": "[3]", "value": "0.019 ± 0.001", "unit": "mg/L"}, {"measurement": "inhibition of platelet aggregation, concentration dependence", "setting": "[3]", "value": "concentration dependent inhibition of collagen-induced platelet aggregation"}, {"measurement": "inhibition of aggregation response at highest concentrations", "setting": "[3]; X 30 and 100 ng/ml, 4 300 μg/ml, 6 3 mg/ml, 7 10 mg/ml", "value": "completely inhibited the aggregation response"}, {"measurement": "effective life (MAP returning to 50% of baseline value)", "setting": "[4]; 0.1 mg/kg i.v.", "value": "about fifteen"}, {"measurement": "effective life (MAP returning to 50% of baseline value)", "setting": "[4]; 1.0 mg/kg i.v.", "value": "about thirty"}, {"measurement": "decline in MAP", "setting": "[4]; i.v.", "value": "immediate, dose related decline in the MAP; also recorded: substantial dose-related fall in MAP"}, {"measurement": "maximum decline in MAP", "setting": "[4]; [8]", "value": "about 70 mm Hg"}, {"measurement": "time of maximum decline in MAP", "setting": "[4]; [8]", "value": "within the first minute"}, {"measurement": "effect of incubation with aqueous vehicle/saline/buffer on anti-platelet activity", "setting": "[5]", "value": "not affected by incubation"}, {"measurement": "Platelet Aggregation (mean)", "setting": "[6]; 3 ng/ml final, 1 Hour in human PPP", "value": "100 % of Control"}, {"measurement": "Platelet Aggregation (mean)", "setting": "[6]; 3 ng/ml final, 4 Hours in human PPP", "value": "91 % of Control"}, {"measurement": "Platelet Aggregation (mean)", "setting": "[6]; 3 ng/ml final, 15 Minutes in human PPP", "value": "101 % of Control"}, {"measurement": "Platelet Aggregation (mean)", "setting": "[6]; 30 ng/ml final, 1 Hour in human PPP", "value": "1 % of Control"}, {"measurement": "Platelet Aggregation (mean)", "setting": "[6]; 30 ng/ml final, 4 Hours in human PPP", "value": "1 % of Control"}, {"measurement": "Platelet Aggregation (mean)", "setting": "[6]; 30 ng/ml final, 15 Minutes in human PPP", "value": "1 % of Control"}, {"measurement": "effect of incubation with PPP on anti-platelet activity", "setting": "[6]; 15 minutes, 1 hour and 4 hours", "value": "no significant effect on the anti-platelet activity"}, {"measurement": "effective life of the fall in MAP", "setting": "[7]; comparison of Compound 4 with Compound X (1 mg/kg i.v.)", "value": 30, "unit": "min"}, {"measurement": "fall in MAP", "setting": "[7]; i.v., Compound X 1 mg/kg, Compound 4 1-10 mg/kg, others 3-30 mg/kg", "value": "similar, maximal fall in MAP to the highest dose of Compound 4"}]}
